Results as given in PubChem BioAssay AID292 (DTP/NCI, 2004).
“And” between values parts separate entries of the source, which are not always exact repeats. Equal values may be shown once. Toxic doses and inconclusive results are not listed.

Tested on: B6C3F1 mice, ip Sarcoma M5076, median survival T/C
Assay: NCI In Vivo Anticancer Drug Screen. Data for tumor model Sarcoma M5076 (intraperitoneal) in B6C3F1 mice
Conditions: endpoint: median survival time, schedule: Q04DX004 (ip), higher = longer survival
Outline: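 Transplantable tumour in mice; compound-treated vs vehicle-treated groups. Read-out: survival. Value = treated/control ratio.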

[1] = dose: 25.0 mg/kg/injection, vehicle: saline with Tween-80
[2] = dose: 50.0 mg/kg/injection, vehicle: saline with Tween-80
[3] = dose: 100.0 mg/kg/injection, vehicle: saline with Tween-80
[4] = dose: 200.0 mg/kg/injection, vehicle: saline with Tween-80
[5] = dose: 400.0 mg/kg/injection, vehicle: saline with Tween-80

NC(C(=O)O)C1=CCCC1 (configuration not stated)
T/C [1]: 102 % of control
T/C [2]: 99 % of control
T/C [3]: 98 % of control
T/C [4]: 98 % of control
T/C [5]: 87 % of control

CCN1CCC(=C(c2ccccc2)c2ccccc2)C1
T/C (dose: 18.75 mg/kg/injection, vehicle: Klucel (hydroxypropylcellulose) (HPC)): 105 % of control
T/C (dose: 37.5 mg/kg/injection, vehicle: Klucel (hydroxypropylcellulose) (HPC)): 99 % of control

CC(=O)C[n+]1ccccc1Sc1ccc(Cl)cc1
T/C [1]: 98 % of control
T/C [2]: 86 % of control
T/C [3]: 88 % of control

C=C(C)[C@H]1Cc2c(ccc3c2O[C@@H]2COc4cc(OC)c(OC)cc4[C@@H]2C3=O)O1
T/C (dose: 6.25 mg/kg/injection, vehicle: saline with Tween-80): 98 % of control
T/C (dose: 12.5 mg/kg/injection, vehicle: saline with Tween-80): 95 % of control
T/C [1]: 97 % of control

Nc1ccccc1Sc1cc(Cl)nnc1Cl
T/C [2]: 97 % of control
T/C [3]: 98 % of control
T/C [4]: 102 % of control
T/C [5]: 88 % of control

O=c1c2cc3ccccc3cc2c(=O)n2n1CC=CC2
T/C (dose: 20.31 mg/kg/injection, vehicle: Klucel (hydroxypropylcellulose) (HPC)): 100 % of control
T/C (dose: 40.63 mg/kg/injection, vehicle: Klucel (hydroxypropylcellulose) (HPC)): 99 % of control
T/C (dose: 81.25 mg/kg/injection, vehicle: Klucel (hydroxypropylcellulose) (HPC)): 99 % of control
T/C (dose: 162.5 mg/kg/injection, vehicle: Klucel (hydroxypropylcellulose) (HPC)): 99 % of control
T/C (dose: 325.0 mg/kg/injection, vehicle: Klucel (hydroxypropylcellulose) (HPC)): 99 % of control

CN(C)CCN1C(=O)c2cccc3cc(N)cc(c23)C1=O
T/C (dose: 12.96 mg/kg/injection, vehicle: acid diluted with saline): 108 % of control and 117 % of control
T/C (dose: 21.6 mg/kg/injection, vehicle: acid diluted with saline): 159 % of control
T/C (dose: 36.0 mg/kg/injection, vehicle: acid diluted with saline): 158 % of control

Cc1c(/C=C/C(=O)O)no[n+]1[O-]
T/C [1]: 100 % of control
T/C [2]: 101 % of control
T/C [3]: 101 % of control
T/C [4]: 101 % of control
T/C [5]: 93 % of control

C[n+]1c2cc(N)ccc2cc2ccc(N)cc21
T/C (dose: 1.5 mg/kg/injection, vehicle: saline): 101 % of control
T/C (dose: 3.0 mg/kg/injection, vehicle: saline): 94 % of control
T/C (dose: 6.0 mg/kg/injection, vehicle: saline): 106 % of control and 118 % of control and 120 % of control
T/C (dose: 12.0 mg/kg/injection, vehicle: saline): 116 % of control and 123 % of control
T/C (dose: 24.0 mg/kg/injection, vehicle: saline): 112 % of control

NCc1cc(O)c(O)c(O)c1
T/C (dose: 75.0 mg/kg/injection, vehicle: saline): 100 % of control and 106 % of control
T/C (dose: 150.0 mg/kg/injection, vehicle: saline): 100 % of control and 104 % of control
T/C (dose: 300.0 mg/kg/injection, vehicle: saline): 100 % of control and 104 % of control
T/C (dose: 600.0 mg/kg/injection, vehicle: saline): 101 % of control and 118 % of control
T/C (dose: 1200.0 mg/kg/injection, vehicle: saline): 104 % of control

O=c1c(-c2nn[nH]n2)cnc2sc3cc(Cl)ccc3n12
T/C (dose: 37.5 mg/kg/injection, vehicle: saline with Tween-80): 98 % of control
T/C (dose: 75.0 mg/kg/injection, vehicle: saline with Tween-80): 95 % of control
T/C (dose: 150.0 mg/kg/injection, vehicle: saline with Tween-80): 90 % of control

COc1ccc2[nH]c3ccc4cc[n+](CCN5CCC(C6CCN(CC[n+]7ccc8ccc9[nH]c%10ccc(OC)cc%10c9c8c7)CC6)CC5)cc4c3c2c1
T/C (dose: 16.0 mg/kg/injection, vehicle: water): 157 % of control
T/C (dose: 32.0 mg/kg/injection, vehicle: water): 194 % of control

N#CC1C(=O)NC(=S)NC1c1ccc(Cl)cc1 (configuration not stated)
T/C (dose: 50.0 mg/kg/injection, vehicle: Klucel (hydroxypropylcellulose) (HPC)): 103 % of control
T/C (dose: 100.0 mg/kg/injection, vehicle: Klucel (hydroxypropylcellulose) (HPC)): 100 % of control
